In patent US11033539B2, “Compounds of formulas (VII), (VIII), (IX), (XI), (XII), (XIII), and (XIV) as muscarinic receptor 4(M4) antagonists for treating neurological diseases” (Neurocrine Biosciences, Inc., priority 2015, dated 2021):

Each compound was assayed against human M4 receptor (Homo sapiens (Human), UniProt P08173) (assay: Radioligand (tritiated N-methylscopolamine) binding assay, M4). Conditions: not given.
Method: Binding affinity (Ki) of compounds was measured by inhibition of radioligand binding to membranes from CHO cells expressing human M1, M2, M3, M4 and M5 receptors. Membranes were prepared by nitrogen cavitation and differential centrifugation as previously described (Hoare et al., Mol. Pharmacol. 2003 March; 63(3): 751-65). The radioligand employed was tritiated N-methylscopolamine, used at a concentration of 1.5 nM. A dose-response of twelve concentrations of compound was used, ranging from 10 μM to […]. The assay buffer was 50 mM HEPES, 100 mM NaCl, 5 mM MgCl2, 1 mM ethylenediaminetetraacetic acid, pH-adjusted to pH 7.4. Membranes, radioligand and compound were incubated together for 90 minutes at 37° C., in a total volume of 150 μl in a 96-well plate. Receptor-bound radioligand was then collected by harvesting the assay over glass fiber filters pretreated with polyethylenimine to trap the cell membranes, using rapid vacuum filtration. Harvesting and radioactivity counting was conducted as previously described (see, e.g., Hoare et al., Mol. Pharmacol. 2003 63(3):751-65); Erratum at Mol. Pharmacol. 2005 July; 68(1): 260).

human M4 receptor, sequence (P08173 whole entry): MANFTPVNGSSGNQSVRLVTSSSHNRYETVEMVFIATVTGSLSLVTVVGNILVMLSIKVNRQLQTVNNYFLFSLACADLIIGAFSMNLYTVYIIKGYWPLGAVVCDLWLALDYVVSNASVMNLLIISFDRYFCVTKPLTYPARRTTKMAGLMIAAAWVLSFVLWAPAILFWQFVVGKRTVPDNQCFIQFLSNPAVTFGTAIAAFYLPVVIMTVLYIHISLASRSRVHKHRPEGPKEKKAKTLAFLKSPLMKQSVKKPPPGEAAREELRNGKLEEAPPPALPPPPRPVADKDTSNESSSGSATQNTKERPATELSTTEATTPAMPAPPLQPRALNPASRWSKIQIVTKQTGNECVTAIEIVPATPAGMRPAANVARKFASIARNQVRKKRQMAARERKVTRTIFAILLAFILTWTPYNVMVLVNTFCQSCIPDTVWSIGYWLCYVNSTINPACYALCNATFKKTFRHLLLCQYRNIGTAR

| SMILES | Ki [nM] |
| --- | --- |
| N#CC1(c2ccccc2)CCN(C(=O)NCCC2CCN(Cc3ccccc3)CC2)CC1 [8-33, N-[2-(1-benzylpiperidin-4-yl)ethyl]-4-cyano-4-phenylpiperidine-1-carboxamide] | 100 to 1000 |

Same assay, conditions: Ki against the M4 receptor; membranes from CHO cells expressing human M4; tritiated N-methylscopolamine 1.5 nM; read-out: Ki

| SMILES | Ki [nM] |
| --- | --- |
| Cc1c(C(=O)NCCC2CCN(Cc3ccccc3)CC2)cnc2cc(-c3ccc(C(F)(F)F)cc3)nn12 [17-8, N-[2-(1-benzylpiperidin-4-yl)ethyl]-7-methyl-2-[4-(trifluoromethyl)phenyl]pyrazolo[1,5-a]pyrimidine-6-carboxamide] | 10 to 100 |
| O=C(NCCC1CCN(Cc2cccc3c2OCCO3)CC1)c1ccc(OCc2ccccc2)cc1 [11-7, 4-(benzyloxy)-N-{2-[1-(2,3-dihydro-1,4-benzodioxin-5-ylmethyl)piperidin-4-yl]ethyl}benzamide] | 10 to 100 |
| O=C(NCCC1CCN(Cc2ccccc2)CC1)C1CCN(c2ccccc2F)CC1 [10-59, N-[2-(1-benzylpiperidin-4-yl)ethyl]-1-(2-fluorophenyl)piperidine-4-carboxamide] | 100 to 1000 |
| Cc1c(C(=O)NCCC2CCN(Cc3cccnc3)CC2)cnc2cc(-c3cccc(C(F)(F)F)c3)nn12 [19-1, 7-methyl-N-{2-[1-(pyridin-3-ylmethyl)piperidin-4-yl]ethyl}-2-[3-(trifluoromethyl)phenyl]pyrazolo[1,5-a]pyrimidine-6-carboxamide] | 100 to 1000 |
| C[C@@H]1CN(c2ncc(C#N)cn2)C[C@H](C)N1C(=O)NCCC1CCN(CC2CCCS(=O)(=O)C2)CC1 (stereo partly drawn) [21-11, (2R,6S)-4-(5-cyanopyrimidin-2-yl)-N-(2-{1-[(1,1-dioxo-1-thian-3-yl)methyl]piperidin-4-yl}ethyl)-2,6-dimethylpiperazine-1-carboxamide] | 100 to 1000 |
| C[C@@H]1CN(c2ccc(F)c(C#N)c2)CCN1C(=O)NCCC1(CO)CCN(Cc2ccccc2)CC1 [7-2, (2R)-N-{2-[1-benzyl-4-(hydroxymethyl)piperidin-4-yl]ethyl}-4-(3-cyano-4-fluorophenyl)-2-methylpiperazine-1-carboxamide] | 10 to 100 |
| O=C(NCCC1CCN(Cc2ccccc2)CC1)C1CCN(c2ccc(C(F)(F)F)nc2)CC1 [10-68, N-[2-(1-benzylpiperidin-4-yl)ethyl]-1-[6-(trifluoromethyl)pyridin-3-yl]piperidine-4-carboxamide] | 100 to 1000 |
| COc1nc(N2CCN(C(=O)NCCC3CCN(Cc4ccccc4)CC3)[C@H](C)C2)ncc1F [4-27, (2R)-N-[2-(1-benzylpiperidin-4-yl)ethyl]-4-(5-fluoro-4-methoxypyrimidin-2-yl)-2-methylpiperazine-1-carboxamide] | 10 to 100 |
| C[C@@H]1CN(c2cc(F)c(F)c(F)c2)CCN1C(=O)NCCC1CCN(Cc2cc(F)cc(F)c2)CC1 [6-23, (2R)-N-(2-{1-[(3,5-difluorophenyl)methyl]piperidin-4-yl}ethyl)-2-methyl-4-(3,4,5-trifluorophenyl)piperazine-1-carboxamide] | 100 to 1000 |
| C[C@@H]1CN(c2cnc(C(F)(F)F)nc2)C[C@H](C)N1C(=O)NCCC1CCN(Cc2ccc(N(C)C)cc2)CC1 [6-53, (2R,6S)-N-[2-(1-{[4-(dimethylamino)phenyl]methyl}piperidin-4-yl)ethyl]-2,6-dimethyl-4-[2-(trifluoromethyl)pyrimidin-5-yl]piperazine-1-carboxamide] | 10 to 100 |
| C[C@@H]1CN(c2ccccn2)CCN1C(=O)NCCC1CCN(Cc2ccccc2)CC1 [4-62, (2R)-N-[2-(1-benzylpiperidin-4-yl)ethyl]-2-methyl-4-(pyridin-2-yl)piperazine-1-carboxamide] | 100 to 1000 |
| N#Cc1cc(F)cc(N2CCN(C(=O)OCCC3CCN(Cc4ccccc4)CC3)CC2)c1 [12-9, 2-(1-benzylpiperidin-4-yl)ethyl 4-(3-cyano-5-fluorophenyl)piperazine-1-carboxylate] | 100 to 1000 |
| O=C(NCCC1CCN(Cc2ccccc2)CC1)[C@H]1CCN(c2ccc(OC(F)(F)F)cc2)C1 [10-71, (3S)-N-[2-(1-benzylpiperidin-4-yl)ethyl]-1-[4-(trifluoromethoxy)phenyl]pyrrolidine-3-carboxamide] | 100 to 1000 |
| CC(C)NC(=O)c1cnc(N2CCN(C(=O)NCCC3CCN(Cc4ccccc4)CC3)[C@H](C)C2)nc1 [27-15] | 100 to 1000 |
| C[C@@H]1CN(c2ccc(F)cc2)CCN1C(=O)NCCC1CCN(Cc2ccccc2)CC1 [4-30, (2R)-N-[2-(1-benzylpiperidin-4-yl)ethyl]-4-(4-fluorophenyl)-2-methylpiperazine-1-carboxamide] | 10 to 100 |
| CC(c1ccccc1)N1CCC(CCNC(=O)N2CCN(c3cc(F)c(F)c(F)c3)C[C@H]2C)CC1 (stereo partly drawn) [6-14, (2R)-2-methyl-N-{2-[1-(1-phenylethyl)piperidin-4-yl]ethyl}-4-(3,4,5-trifluorophenyl)piperazine-1-carboxamide] | 10 to 100 |
| C[C@H]1CN(c2cc(F)c(F)c(F)c2)CCN1C(=O)NCCC1CCN(Cc2ccccc2)CC1 [4-24, (2S)-N-[2-(1-benzylpiperidin-4-yl)ethyl]-2-methyl-4-(3,4,5-trifluorophenyl)piperazine-1-carboxamide] | 10 to 100 |

| SMILES | Ki [nM] |
| --- | --- |
| Cc1cc(N2CCN(C(=O)NCCC3CCN(Cc4ccccc4)CC3)[C@H](C)C2)ccc1C#N [4-4, (2R)-N-[2-(1-benzylpiperidin-4-yl)ethyl]-4-(4-cyano-3-methylphenyl)-2-methylpiperazine-1-carboxamide] | 100 to 1000 |
| CN(CCNC(=O)C1CCN(c2cccc(OC(F)(F)F)c2)CC1)[C@H]1CCN(Cc2ccccc2)C1 [9-31, N-(2-{[(3S)-1-benzylpyrrolidin-3-yl](methyl)amino}ethyl)-1-[3-(trifluoromethoxy)phenyl]piperidine-4-carboxamide] | 10 to 100 |
| O=C(NCC(O)C1CCN(CC2CCCCC2)CC1)C1CCN(c2ccc(OC(F)(F)F)cc2)CC1 (stereo not shown) [11-23, N-{2-[1-(cyclohexylmethyl)piperidin-4-yl]-2-hydroxyethyl}-1-[4-(trifluoromethoxy)phenyl]piperidine-4-carboxamide] | 100 to 1000 |
| C[C@H]1CN(c2ncc(C#N)cn2)C[C@H](C)N1C(=O)NCCC1CCN(Cc2ccccc2)CC1 [26-3] | 100 to 1000 |
| O=C(NCCC1CCN(Cc2ccccc2)CC1)c1ccc(-c2ccc(F)cc2)cc1 [9-41, N-[2-(1-benzylpiperidin-4-yl)ethyl]-4-(4-fluorophenyl)benzamide] | 10 to 100 |
| O=C(C1CCN(c2ncc(C(F)(F)F)cc2Cl)CC1)N(CCC1CCN(Cc2ccccc2)CC1)C1CC1 [9-58, N-[2-(1-benzylpiperidin-4-yl)ethyl]-1-[3-chloro-5(trifluoromethyl)pyridin-2-yl]-N-cyclopropylpiperidine-4-carboxamide] | 100 to 1000 |
| O=C(NCCC1CCN(Cc2ccccc2)CC1)c1ccc(-c2cccs2)cc1 [9-55, N-[2-(1-benzylpiperidin-4-yl)ethyl]-4-(thiophen-2-yl)benzamide] | 100 to 1000 |
| CCCn1c(=O)c2nc(-c3ccc(C(=O)NCCC4CCN(Cc5ccccc5)CC4)cc3)[nH]c2n(CCC)c1=O [9-45, N-[2-(1-benzylpiperidin-4-yl)ethyl]-4-(2,6-dioxo-1,3-dipropyl-2,3,6,9-tetrahydro-1H-purin-8-yl)benzamide] | 10 to 100 |
| CC(=O)c1ccc(N2CCN(C(=O)NCCC3CCN(Cc4ccccc4)CC3)CC2)cc1 [8-36, 4-(4-acetylphenyl)-N-[2-(1-benzylpiperidin-4-yl)ethyl]piperazine-1-carboxamide] | 100 to 1000 |
| Cc1cc(C(=O)NC(C)C)nc(N2CCN(C(=O)NCCC3CCN(Cc4ccccc4)CC3)[C@H](C)C2)n1 [27-13] | 100 to 1000 |
| C[C@@H]1CN(c2cc(F)c(F)c(F)c2)CCN1C(=O)NCC[C@H]1CCN(Cc2ccccc2)C1 [7-5, (2R)-N-{2-[(3S)-1-benzylpyrrolidin-3-yl]ethyl}-2-methyl-4-(3,4,5-trifluorophenyl)piperazine-1-carboxamide] | 100 to 1000 |
| C[C@@H]1CN(c2cc(F)ccc2F)CCN1C(=O)NCCC1CCN(Cc2ccccc2)CC1 [4-45, (2R)-N-[2-(1-benzylpiperidin-4-yl)ethyl]-4-(2,5-difluorophenyl)-2-methylpiperazine-1-carboxamide] | 10 to 100 |
| C[C@@H]1CN(c2ncc(C#N)cn2)C[C@H](C)N1C(=O)NCCC1CCN(Cc2ccncc2)CC1 [6-62, (2R,6S)-4-(5-cyanopyrimidin-2-yl)-2,6-dimethyl-N-{2-[1-(pyridin-4-ylmethyl)piperidin-4-yl]ethyl}piperazine-1-carboxamide] | 100 to 1000 |
| CC(=O)O[C@H](CNC(=O)N1CCN(c2ccc(F)c(C#N)c2)C[C@H]1C)C1CCN(Cc2ccccc2)CC1 [3-2, (1S)-1-(1-benzylpiperidin-4-yl)-2-{[(2R)-4-(3-cyano-4-fluorophenyl)-2-methylpiperazine-1-carbonyl]amino}ethyl acetate] | 10 to 100 |
| COc1cccc(CN2CCC(CCNC(=O)N3[C@H](C)CN(c4ncc(C#N)cn4)C[C@@H]3C)CC2)c1 [6-59, (2R,6S)-4-(5-cyanopyrimidin-2-yl)-N-(2-{1-[(3-methoxyphenyl)-methyl]piperidin-4-yl}ethyl)-2,6-dimethylpiperazine-1-carboxamide] | 10 to 100 |
| C[C@@H]1CN(c2ncc(C#N)c(N(C)C)n2)CCN1C(=O)NCCC1CCN(Cc2ccccc2)CC1 [5-15, (2R)-N-[2-(1-benzylpiperidin-4-yl)ethyl]-4-[5-cyano-4-(dimethylamino)pyrimidin-2-yl]-2-methylpiperazine-1-carboxamide] | 10 to 100 |
